# Reference: patent publication US8921267B2, “Safening 6-(trisubstituted phenyl)-4-amino-2-pyridinecarboxylate herbicide injury on cereal crops” (Dow AgroSciences LLC, priority 2008, dated 2014)
# Counter-ions that a name gives are not always drawn.
# How the values were obtained:
# Assay type in all cases: in vivo
# [1] = test system: wheat (Triticum aestivum L; TRZAS); assay: Postemergence herbicidal safening, greenhouse, visual injury: wheat
# Procedure: (§1) Evaluation of Postemergence Herbicidal Safening in Cereal Crops
# (§2) Seeds of the desired test plant species were planted in Sun Gro MetroMix® 306 planting mixture, which typically has a pH of 6.0 to 6.8 and an organic matter content of about 30 percent, in plastic pots with a surface area of 103.2 square centimeters (cm^2). When required to ensure good germination and healthy plants, a fungicide treatment and/or other chemical or physical treatment was applied. The plants were grown for 7-36 days (d) in a greenhouse with an approximate 14-hour (h) photoperiod which was maintained at about 18° C. during the day and 17° C. during the night. Nutrients and water were added on a regular basis and supplemental lighting was provided with overhead metal halide 1000-Watt lamps as necessary. The plants were employed for testing when they reached the second or third true leaf stage.
# (§3) Weighed amounts of esters (methyl) or salts (TEA [triethylammonium], K [potassium]) of 4-amino-3-chloro-6-(4-chloro-2-fluoro-3-methoxyphenyl)pyridine-2-carboxylic acid (Compound 1) were dissolved in a volume of 97:3 volume/volume (v/v) acetone/dimethylsulfoxide (DMSO) to obtain stock solutions. […] The concentrated stock solutions were diluted with an aqueous mixture of 1.5% v/v of Agri-dex crop oil concentrate to provide the appropriate application rates. Compound requirements are based upon a 12 mL application volume at a rate of 187 liters per hectare (L/ha). Stocks solutions of the safeners were prepared following the same procedure. Spray solutions of the safeners and experimental compound mixtures were prepared by adding the stock solutions to the appropriate amount of dilution solution to form a 12 mL spray solution with active ingredients in two-way combinations. Formulated compounds were applied to the plant material with an overhead Mandel track sprayer equipped with 8002E nozzles calibrated to deliver 187 L/ha over an application area of 0.503 square meters (m^2) at a spray height of 18 inches (43 centimeters (cm)) above average plant canopy. Control plants were sprayed in the same manner with the solvent blank.
# (§4) The treated plants and control plants were placed in a greenhouse as described above and watered by sub-irrigation to prevent wash-off of the test compounds. After 20-22 d, the condition of the test plants as compared with that of the control plants was determined visually and scored on a scale of 0 to 100 percent where 0 corresponds to no injury and 100 corresponds to complete kill.
# (§5) Colby's equation was used to determine the herbicidal effects expected from the mixtures (Colby, S. R. Calculation of the synergistic and antagonistic response of herbicide combinations. Weeds 1967, 15, 20-22.).
# (§6) The following equation was used to calculate the expected activity of mixtures containing two active ingredients, A and B: Expected=A+B−(A×B/100)
# (§7) A=observed efficacy of active ingredient A at the same concentration as used in the mixture.
# (§8) B=observed efficacy of active ingredient B at the same concentration as used in the mixture.
# [2] = test system: barley (Hordeum vulgare L; HORVS); assay: Postemergence herbicidal safening, greenhouse, visual injury: barley
# Procedure: as §1, §2, §3, §4, §5, §6, §7, §8
# [3] = test system: scented mayweed (Matricaria chamomila L; MATCH); assay: Postemergence herbicidal activity, greenhouse, visual injury: scented mayweed; set-up: key: % visual injury: 0 = no injury, 100 = complete kill
# Procedure: as §1, §2, §3, §4, §5, §6, §7, §8
# [4] = test system: wild pansy (Viola tricolor L; VIOTR); assay: Postemergence herbicidal activity, greenhouse, visual injury: wild pansy; set-up: key: visual injury, 0–100%: 0 = no injury, 100 = complete kill
# Procedure: as §1, §2, §3, §4, §5, §6, §7, §8
# [5] = test system: cleavers (Galium aparine L; GALAP); assay: Postemergence herbicidal activity, greenhouse, visual injury: cleavers; set-up: key: visual injury, 0–100%: 0 = no injury, 100 = complete kill
# Procedure: as §1, §2, §3, §4, §5, §6, §7, §8
# [6] = test system: kochia (Kochia scoparia L; KCHSC); assay: Postemergence herbicidal activity, greenhouse, visual injury: kochia; set-up: key: % visual injury: 0 = no injury, 100 = complete kill
# Procedure: as §1, §2, §3, §4, §5, §6, §7, §8
# [7] = test system: purple deadnettle (Lamium purpureum L; LAMPU); assay: Postemergence herbicidal activity, greenhouse, visual injury: purple deadnettle; set-up: key: visual injury, 0–100%: 0 = no injury, 100 = complete kill
# Procedure: as §1, §2, §3, §4, §5, §6, §7, §8
# [8] = test system: corn poppy (Papaver rhoeas L; PAPRH); assay: Postemergence herbicidal activity, greenhouse, visual injury: corn poppy
# Procedure: as §1, §2, §3, §4, §5, §6, §7, §8
# [9] = test system: wild buckwheat (Polygonum convolvulus L; POLCO); assay: Postemergence herbicidal activity, greenhouse, visual injury: wild buckwheat
# Procedure: as §1, §2, §3, §4, §5, §6, §7, §8
# [10] = test system: Russian thistle (Salsola iberica L; SASKR); assay: Postemergence herbicidal activity, greenhouse, visual injury: Russian thistle; set-up: key: visual injury, 0–100%: 0 = no injury, 100 = complete kill
# Procedure: as §1, §2, §3, §4, §5, §6, §7, §8
# [11] = test system: chickweed (Stellaria media L; STEME); assay: Postemergence herbicidal activity, greenhouse, visual injury: chickweed; set-up: key: visual injury, 0–100%: 0 = no injury, 100 = complete kill
# Procedure: as §1, §2, §3, §4, §5, §6, §7, §8
# [12] = test system: bird's-eye speedwell (Veronica persica L; VERPE); assay: Postemergence herbicidal activity, greenhouse, visual injury: bird's-eye speedwell; set-up: key: visual injury, 0–100%: 0 = no injury, 100 = complete kill
# Procedure: as §1, §2, §3, §4, §5, §6, §7, §8
# [13] = Compound 1 K salt 8.75 g/ha alone
# [14] = Compound 1 K salt 17.5 g/ha alone
# [15] = Compound 1 K salt 35 g/ha alone
smiles,measurement,setting,value
COc1c(Cl)ccc(-c2cc(N)c(Cl)c(C(=O)[O-])n2)c1F.[K+] [1 K salt],TRZAS Ob (Observed values),[1]; [13],5
same,TRZAS Ob (Observed values),[1]; [14],8
same,TRZAS Ob (Observed values),[1]; [15],27
same,HORVS Ob (Observed values),[2]; [13],1.7
same,HORVS Ob (Observed values),[2]; [14],3.3
same,HORVS Ob (Observed values),[2]; [15],6.7
same,MATCH Ob (Observed values),[3]; [13],50
same,MATCH Ob (Observed values),[3]; [14],62
same,MATCH Ob (Observed values),[3]; [15],57
same,VIOTR Ob (Observed values),[4]; [13],20
same,VIOTR Ob (Observed values),[4]; [14],48
same,VIOTR Ob (Observed values),[4]; [15],42
"COc1c(Cl)ccc(-c2cc(N)c(Cl)c(C(=O)O)n2)c1F [Compound 1 TEA salt, 4-amino-3-chloro-6-(4-chloro-2-fluoro-3-methoxyphenyl)pyridine-2-carboxylic acid]",TRZAS Ob,[1]; applied alone at 140 g/ha,26%
same,TRZAS Ob,"[1]; applied alone, 140 g/ha",26%
same,HORVS Ob,[2]; applied alone at 140 g/ha,16%
same,HORVS Ob,"[2]; applied alone, 140 g/ha",16%
same,GALAP Ob,[5]; applied alone at 140 g/ha,100%
same,GALAP Ob,"[5]; applied alone, 140 g/ha",100
same,KCHSC Ob,[6]; applied alone at 140 g/ha,94%
same,KCHSC Ob,"[6]; applied alone, 140 g/ha",94
same,LAMPU Ob,[7]; applied alone at 140 g/ha,99%
same,LAMPU Ob,"[7]; applied alone, 140 g/ha",99
same,MATCH Ob,[3]; applied alone at 140 g/ha,80%
same,MATCH Ob,"[3]; applied alone, 140 g/ha",80
same,PAPRH Ob,[8]; applied alone at 140 g/ha,100%
same,PAPRH Ob,"[8]; applied alone, 140 g/ha",100
same,POLCO Ob,[9]; applied alone at 140 g/ha,100%
same,POLCO Ob,"[9]; applied alone, 140 g/ha",100
same,SASKR Ob,[10]; applied alone at 140 g/ha,88%
same,SASKR Ob,"[10]; applied alone, 140 g/ha",88
same,STEME Ob,[11]; applied alone at 140 g/ha,94%
same,STEME Ob,"[11]; applied alone, 140 g/ha",94
same,VERPE Ob,[12]; applied alone at 140 g/ha,85%
same,VERPE Ob,"[12]; applied alone, 140 g/ha",85
same,VIOTR Ob,[4]; applied alone at 140 g/ha,69%
same,VIOTR Ob,"[4]; applied alone, 140 g/ha",69
Clc1cc(Cl)nc(-c2ccccc2)n1 [Fenclorim],GALAP Ob,"[5]; applied alone, 17.5 g/ha",0
same,GALAP Ob,"[5]; applied alone, 35 g/ha",0
same,GALAP Ob,"[5]; applied alone, 70 g/ha",0
same,GALAP Ob,"[5]; applied alone, 140 g/ha",0
same,KCHSC Ob,"[6]; applied alone, 17.5 g/ha",0
same,KCHSC Ob,"[6]; applied alone, 35 g/ha",0
same,KCHSC Ob,"[6]; applied alone, 70 g/ha",0
same,KCHSC Ob,"[6]; applied alone, 140 g/ha",0
same,LAMPU Ob,"[7]; applied alone, 17.5 g/ha",0
same,LAMPU Ob,"[7]; applied alone, 35 g/ha",0
same,LAMPU Ob,"[7]; applied alone, 70 g/ha",0
same,LAMPU Ob,"[7]; applied alone, 140 g/ha",0
same,MATCH Ob,"[3]; applied alone, 17.5 g/ha",0
same,MATCH Ob,"[3]; applied alone, 35 g/ha",0
same,MATCH Ob,"[3]; applied alone, 70 g/ha",0
same,MATCH Ob,"[3]; applied alone, 140 g/ha",0
same,PAPRH Ob,"[8]; applied alone, 17.5 g/ha",0
same,PAPRH Ob,"[8]; applied alone, 35 g/ha",0
same,PAPRH Ob,"[8]; applied alone, 70 g/ha",0
same,PAPRH Ob,"[8]; applied alone, 140 g/ha",0
same,POLCO Ob,"[9]; applied alone, 17.5 g/ha",0
same,POLCO Ob,"[9]; applied alone, 35 g/ha",0
same,POLCO Ob,"[9]; applied alone, 70 g/ha",0
same,POLCO Ob,"[9]; applied alone, 140 g/ha",0
same,SASKR Ob,"[10]; applied alone, 17.5 g/ha",0
same,SASKR Ob,"[10]; applied alone, 35 g/ha",0
same,SASKR Ob,"[10]; applied alone, 70 g/ha",0
same,SASKR Ob,"[10]; applied alone, 140 g/ha",0
same,STEME Ob,"[11]; applied alone, 17.5 g/ha",0
same,STEME Ob,"[11]; applied alone, 35 g/ha",0
same,STEME Ob,"[11]; applied alone, 70 g/ha",0
same,STEME Ob,"[11]; applied alone, 140 g/ha",0
same,VERPE Ob,"[12]; applied alone, 17.5 g/ha",0
same,VERPE Ob,"[12]; applied alone, 35 g/ha",0
same,VERPE Ob,"[12]; applied alone, 70 g/ha",0
same,VERPE Ob,"[12]; applied alone, 140 g/ha",0
same,VIOTR Ob,"[4]; applied alone, 17.5 g/ha",0
same,VIOTR Ob,"[4]; applied alone, 35 g/ha",0
same,VIOTR Ob,"[4]; applied alone, 70 g/ha",0
same,VIOTR Ob,"[4]; applied alone, 140 g/ha",0
